From patent US8993714B2, “Streptavidin macromolecular adaptor and complexes thereof” (Imiplex LLC, priority 2007, dated 2015)
pKd: −log10 of the molar value.

Assays:
streptavidin [1] = target: T1, streptavidin (Streptomyces avidinii, UniProt P22629); experiment: Ligand binding to the streptavidin biotin binding site (dissociation constant)
Excerpt: A strut can be formed from streptavidin (FIG. 1), a tetrameric protein of 60 kiloDalton molecular weight secreted by the bacterium Streptomyces avidinii. […] Part d designates two of the four bound biotins on the same “side” of the tetramer in space filling representation. Part e is a representation of the streptavidin tetramer surface showing overall molecular shape.
For example, the first and/or the second moiety can be an iminobiotin group. […] However, at pH values of less than or equal to about 4, the imino group on iminobiotin becomes charged, so that it is displaced from the streptavidin binding site. Thus, a structure can be temporarily formed using an iminobiotin-functionalized crosslinking reagent. […] Then, by lowering the pH below 4, the iminobiotin bonds can release, and components of the temporary structure can be washed away. Thus, a bifunctional crosslinking reagent with an iminobiotin group as the first and/or second moiety can be used to form a temporary scaffold, which assists in the construction of a permanent nanostructure.
More generally, the dyes can be used to monitor the assembly of streptavidin-linked nanostructures.
MALDI or ESI MS can be used to characterize the species. […] FIGS. 34c and 34d show the structures of the 1:1 and 1:2 Azido-ATP-linked SAV:SAMA complexes. Spectroscopic methods can be used to monitor SAV:SAMA complex formation using a dye displacement approach and using DLS alone or combined with static light scattering.

streptavidin [2] = target: T1, streptavidin; conditions: neutral pH; read-out: iminobiotin dissociation constant; cited from earlier work
[3] = Stability on 4-12% Bis-TRIS MOPS SDS PAGE after heating at 70° C. with reducing agent and SDS; assay type: physicochemical; conditions: 70° C. for 10 minutes with reducing agent and SDS
Method: We established optimal conditions for complex formation. One issue involved the existence of stable dimeric, trimeric and higher aggregates of streptavidin in most preparations (Sano & Cantor 1990b; Kurzban et al. 1991; Waner et al. 2004). We found the aggregates of liganded and unliganded streptavidin stable to heating at 70° C. and the liganded streptavidin aggregates also stable in SDS PAGE running buffers (FIG. 33). We exploited these features in a gel assay to help assess complexation in both denaturing and native gels (see FIG. 33). The left and middle panels of FIG. 33 show complexes of SAMA and streptavidin analyzed on 4-12% Bis-TRIS gels with 3-(N-Morpholino)propanesulfonic acid (MOPS) SDS running buffer. […] Prior to loading, samples were heated at 70° C. for 10 minutes together with reducing agent and SDS. Lanes are numbered on the top and the sample identity (SAMA and linking reagent) given below. Mark12 MW standards (Invitrogen) are in Lane 1. […] Schematics on the left indicate the electrophoretic mobilities of control molecules including the streptavidin monomer, derivatized and underivatized SAMA monomers, the streptavidin:biotin tetramer and higher order aggregates of the streptavidin:biotin tetramer. Brackets and schematics on the right indicate probable electrophoretic mobilities of SAMA:SAV complexes. […]

T1 sequence (P22629 25-183): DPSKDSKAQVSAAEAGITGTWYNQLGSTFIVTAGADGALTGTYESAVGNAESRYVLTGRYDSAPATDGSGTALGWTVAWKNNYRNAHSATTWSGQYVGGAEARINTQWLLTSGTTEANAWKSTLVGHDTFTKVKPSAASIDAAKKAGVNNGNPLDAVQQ

Molecule: O=C(O)c1ccccc1N=Nc1ccc(O)cc1 [HABA, 4′-hydroxyazobenzene-2-carboxylic acid]
- binds more weakly to streptavidin than biotin (streptavidin [1]): 8 orders of magnitude
- binds more weakly to streptavidin than iminobiotin (streptavidin [1]): 5 orders of magnitude

Molecule: N=C1N[C@H]2[C@H](CS[C@H]2CCCCC(=O)O)N1 [iminobiotin]
- iminobiotin dissociation constant relative to biotin-streptavidin dissociation constant, orders of magnitude greater (streptavidin [1]): 3 orders of magnitude
- pKd (streptavidin [2]): ~11.00

Molecule: streptavidin: tetrameric protein of 60 kiloDalton secreted by Streptomyces avidinii with 4 biotin binding sites
- folded state under gel conditions [3]: denatured
